Key:
melanoma cells = test: 51Cr release assay of SLC45A2-specific CD8 T cells against inhibitor-treated melanoma cells; format: cell-based, human; conditions: melanoma cells treated for 48 hours
Protocol: SLC45A2-specific CD8 T cells were assayed for specific lysis of SLC45A2-expressing or not expressing targets using standard 51Chromium (51Cr) release assay. Targets were labeled with 100 uCi of 51Cr for 2 hrs and after three times washing, the labeled targets plated triplicated well at a 2000 targets per well. Effector cells were incubated with targets as various effector:target (E:T) ratio. After 4 hours, 30 ul of supernatant was collected from each well and the 51Cr was measured by a gamma counter. The percentage of specific lysis was calculated.
(§1) Mel526 and A375 (BRAF V600E+) and MeWo (BRAF wild type) were treated with BRAF V600E inhibitor, dabrafenib (50 nM), or MEK inhibitor, Trametinib (50 nM) (GlaxoSmithKline) or both for 48 hours. Untreated melanomas were used as control.
Like other melanocyte differentiation proteins such as MART-1, gp100 and tyrosinase, the SLC45A2 gene is regulated by the MITF transcription factor (J Biol Chem, 2002, 277:402-406, Gen Soci Ame, 2008 178:761-769). MITF protein levels are suppressed by oncogenic BRAF through ERK-mediated phosphorylation and degradation (J Cell Biol, 2005, 170:703-708). […] Melanoma cells were treated with a specific inhibitor of BRAF V600E, dabrafenib (50 nM), or a MEK inhibitor, Trametinib (50 nM), or both for 48 hours and mRNA expression of SLC45A2 and MART-1 was analyzed by RT-PCR. […]

[1] = test system: mRNA expression of SLC45A2 and MART-1; test: RT-PCR of SLC45A2 and MART-1 mRNA after MAPK pathway inhibitor treatment; format: cell-based, human; conditions: 50 nM, 48 hours
Protocol: Real time PCR was done with primers of SLC45A2, MART-1, gp100, and tyrosinase using power syber green PCR master mix (Applied biosystems life technologies). Values were normalized by the amount of the gene encoding GAPDH.
as §1
Like other melanocyte differentiation proteins such as MART-1, gp100 and tyrosinase, the SLC45A2 gene is regulated by the MITF transcription factor (J Biol Chem, 2002, 277:402-406, Gen Soci Ame, 2008 178:761-769). MITF protein levels are suppressed by oncogenic BRAF through ERK-mediated phosphorylation and degradation (J Cell Biol, 2005, 170:703-708). Thus, it was next investigated whether BRAF or MEK inhibitors can modulate SLC45A2 expression. Melanoma cells were treated with a specific inhibitor of BRAF V600E, dabrafenib (50 nM), or a MEK inhibitor, Trametinib (50 nM), or both for 48 hours and mRNA expression of SLC45A2 and MART-1 was analyzed by RT-PCR. […] To assess the killing effect of SCL45A2-specific CD8 T cells against melanoma cells after treatment with BRAF and MEK inhibitors, a ^51Cr release assay was performed in melanoma cells treated with a BRAF inhibitor, a MEK inhibitor or both for 48 hours.

| SMILES | cytotoxicity of SLC45A2-specific CD8 T cells against treated vs untreated melanoma cells (melanoma cells) | mRNA expression of SLC45A2 and MART-1 ([1]; MeWo cells (wild type BRAF)) | mRNA expression of SLC45A2 and MART-1 ([1]; Mel526 cells (BRAF V600E)) |
| --- | --- | --- | --- |
| CC(=O)Nc1cccc(-n2c(=O)n(C3CC3)c(=O)c3c(Nc4ccc(I)cc4F)n(C)c(=O)c(C)c32)c1 [Trametinib] | increased cytotoxicity |  |  |
| CC(C)(C)c1nc(-c2cccc(NS(=O)(=O)c3c(F)cccc3F)c2F)c(-c2ccnc(N)n2)s1 [dabrafenib] | increased cytotoxicity | did not show an increased expression | significant increase |
